Results reported in patent US9285319B2, “Nucleic acid base analogs with quenching and fluorescent activities and applications thereof” (RIKEN, priority 2010, dated 2016).
Read-outs that look alike come from different tables or passages of the source.

Experiments:
[1] = Fluorescence intensity of fluorescent molecule (Cy3) linked to Px base having a quenching activity; type: physicochemical; settings: free substrate
[2] = biological target: T1, Klenow fragment not having exonuclease activity (KF exo−) (Escherichia coli, UniProt P00582, D355A/E357A); type: biochemical; settings: for Km / Vmax: 37° C., SD in parentheses
T1 construct: a Klenow fragment not having exonuclease activity; purchased Amersham USB
T1 sequence (P00582 324-928 D355A/E357A): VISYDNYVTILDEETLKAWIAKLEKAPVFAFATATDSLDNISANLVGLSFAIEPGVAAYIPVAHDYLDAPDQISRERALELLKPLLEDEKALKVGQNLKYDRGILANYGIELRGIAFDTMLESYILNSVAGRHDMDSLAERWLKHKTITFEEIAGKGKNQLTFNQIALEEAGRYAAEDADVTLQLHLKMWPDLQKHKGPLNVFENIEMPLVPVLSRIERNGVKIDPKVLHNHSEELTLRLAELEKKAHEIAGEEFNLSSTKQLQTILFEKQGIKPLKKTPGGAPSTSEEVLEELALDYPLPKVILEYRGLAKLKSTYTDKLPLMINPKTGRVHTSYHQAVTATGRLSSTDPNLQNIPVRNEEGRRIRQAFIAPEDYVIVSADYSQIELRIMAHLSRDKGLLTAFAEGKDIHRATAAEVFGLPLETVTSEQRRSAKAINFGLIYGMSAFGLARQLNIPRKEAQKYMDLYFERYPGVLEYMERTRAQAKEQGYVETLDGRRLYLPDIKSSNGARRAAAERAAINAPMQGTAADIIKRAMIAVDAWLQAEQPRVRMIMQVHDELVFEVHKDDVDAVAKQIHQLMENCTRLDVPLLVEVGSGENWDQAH
Procedure: An experiment of single-base incorporation by a Klenow fragment was performed with reference to documents (Kimoto, M., Yokoyama, S., Hirao, I., Biotechnol. Lett., 2004, 26, 999-1005; Petruska, J., Goodman, M. F., Boosalis, M. S., Sowers, L. C., Cheong, C., Tinoco, I., Proc. Natl. Acad. Sci. USA, 1988, 85, 6252-6256; Goodman, M. F., Creighton, S., Bloom, L. B., Petruska, J., Crit. Rev. Biochem. Mol. Biol., 1993, 28, 83-126; Morales, J. C., Kool, E. T., Nat. Struct. Biol., 1998, 5, 950-954).
Specifically, a primer (20-mer, 5′-[…]-3′ (SEQ ID NO: 4) or 5′-[…]-3′ (SEQ ID NO: 5)) labeled with 6-carboxyfluorescein at the 5′ end and a template DNA (35-mer, 5′-AGCTCTDss[…]-3′ (SEQ ID NO: 6) or 5′-[…]-3′ (N=Pn, A, G, C, or T) (SEQ ID NO: 7)) were heated in a 100 mM Tris-HCl buffer (pH 7.5) containing 20 mM MgCl2, 2 mM DTT, and 100 μg/mL bovine serum albumin (BSA) at 95° C. and were then gradually cooled to 4° C. for annealing to form a double strand of the template and the primer.
An enzyme solution (2 μL) of a Klenow fragment not having exonuclease activity (KF exo−, Amersham USB) was added to 5 μL of each primer-template double-stranded DNA solution (10 μM). The mixture was incubated at 37° C. for 2 minutes to form a DNA/enzyme complex. To this solution, 3 μL of each substrate solution, i.e., nucleoside triphosphate solution (Dss, Pn, or one of A, G, C, and T, 1 μM to 5 mM) was added, followed by an enzyme reaction at 37° C. (for 1 to 35 minutes). The reaction was terminated by adding 10 μL of a 20 mM EDTA solution in 95% formamide (stop solution) to the reaction solution and heating the solution at 75° C. for 3 minutes.
The reaction conditions are summarized as follows. For each solution (10 μL), 5 μM primer-template double strand, 5 to 50 nM enzyme, and 0.3 to 1500 μM substrate are used. The solution (10 μL) contains 50 mM Tris-HCl (pH 7.5), 10 mM MgCl2, 1 mM DTT, and 0.05 mg/mL BSA. The reaction is performed at 37° C. for 1 to 35 minutes.
A part of the reaction solution was diluted with the stop solution, and 0.5 μL of the diluted reaction solution was mixed with 3 μL of a loading solution (deionized formamide: 50 mg/mL blue dextran solution containing 25 mM EDTA=5:1). The solution mixture was heated at 90° C. for 2 minutes and then was rapidly cooled on ice. About 0.5 μL of the solution was loaded on every other lane of a sequencing gel for electrophoresis. The sequencing gel (36 cm WTR) was composed of 6 M urea, 10% polyacrylamide (acrylamide:bisacrylamide=19:1), and 0.5×TBE. The buffer used for the electrophoresis was 0.5×TBE. The Run Module was GS Run 36C-2400. The time for electrophoresis was about 1 hour, and the peak patterns of the reaction products were analyzed and quantitatively measured by an automated ABI377 DNA sequencer equipped with GeneScan software (version 3.0).
The proportion of the primer extended by one nucleotide was determined from the peak area of the unreacted primer fragment and the peak area of the DNA fragment extended by single-base incorporation, and enzymatic parameters Vmax and KM were calculated by Hanes-Woolf plot (Goodman, M. F., Creighton, S., Bloom, L. B., Petruska, J., Crit. Rev. Biochem. Mol. Biol., 1993, 28, 83-126). The Vmax value was standardized to 20 nM enzyme concentration and 5 μM double strand concentration for various enzyme and double-strand concentrations used.

[3] = template N = T, primer 5′-ACTCACTATAGGGAGCTTCT
[4] = template N = Dss, primer 5′-[…]
[5] = template N = A, primer 5′-ACTCACTATAGGGAGGAAGA

Q: For “1-(2-deoxy-β-D-ribofuranosyl-4-[3-(Cy3-carboxamide hexanamide)-1-propynyl]-2-nitropyrrole 5′-triphosphate [Cy3-hx-dPxTP]”, which “fluorescence intensity of fluorescent molecule quenched when linked to Px base” value [1] is on record?
A: about 30%

Q: Which results are given for `Nc1ncnc2c1ncn2[C@H]1C[C@H](O)[C@@H](COP(=O)(O)OP(=O)(O)OP(=O)(O)O)O1` [dATP, deoxyriboadenosine triphosphate]?
A: Efficiency (Vmax/KM) [2, 3]: 4.0 × 10^6 % min^−1 M^−1; Km [2, 3]: 0.81 µM; Vmax [2, 3]: 3.3 (1.8) % min^−1

Q: With `O=[N+]([O-])c1cccn1[C@H]1C[C@H](O)[C@@H](COP(=O)(O)OP(=O)(O)OP(=O)(O)O)O1` [dPnTP] as the molecule, how does the “Efficiency (Vmax/KM)” value [2, 4] read?
A: 1.1 × 10^5 % min^−1 M^−1

Q: What about the Km [2, 4] of the same molecule?
A: 100 µM

Q: What about the Vmax [2, 4] of the same molecule?
A: 11 (3) % min^−1

Q: For deoxyribothymidine triphosphate [dTTP], which “Efficiency (Vmax/KM)” value [2, 5] is on record?
A: 4.0 × 10^6 % min^−1 M^−1

Q: And the Km [2, 5]?
A: 0.7 µM

Q: And the Vmax [2, 5]?
A: 2.8 (1.5) % min^−1
